Experimental data taken from patent US6331555A, “Treatment of platelet derived growth factor related disorders such as cancers” (priority 1999, dated 2001).
Like-named read-outs stand apart in the source and are kept apart here.

Experiments:
EGFR = target: T1, EGFR (Homo sapiens, UniProt P00533); test: Receptor tyrosine kinase inhibition, EGFR; assay type: cell-based; settings: read-out: EGFR ID50
T1 construct: expressed in transfected cells; host or cells: NIH3T3 mouse fibroblasts, retroviral vector
Protocol: (§1) For western blotting, cells were plated in 2 mL growth medium into 6-well dishes (500,000 cells per well) and allowed to attach overnight. The medium was replaced with 2 mL MCDB 105 (UCSF Cell Culture Facility) supplemented with 1% FBS. The plates were then incubated overnight at 37° C., ambient CO2. […] After a 7 min incubation at room temperature with ligand, the plates were put on ice and washed three times with 1 mL ice-cold PBS plus 1 mM orthovanadate. Lysis was achieved by pipetting cells in 0.5 mL of buffer containing 50 mM Tris, pH 7.4, 10% glycerol, 1% NP-40, 2 mM EDTA, 1 mM sodium vanadate (Na3 VO4), 10 mM pyrophosphate, 1 mM PMSF, […]. A 300 μL aliquot of each lysate was immediately added to 100 μL 4×Laemmli sample buffer ([…] Tris pH 6.9, 20% glycerol, 7% SDS, 5 mM EDTA, 5% β-mercaptoethanol) containing phosphatase inhibitors, 2 mM Na3 VO4 and 10 mM pyrophosphate. Samples were boiled for 5 min, frozen in dry ice-ethanol, and stored at -80° C. Proteins were resolved by SDS-PAGE (Bio-Rad Miniprotean II) and transferred to nitrocellulose membrane (Schleicher & Schuell) at 120 volts for 1 hr at room temperature in buffer containing 25 mM Tris pH 8.3, 20% methanol, 0.2 M glycine, 0.1% SDS. The integrity of the protein-to-membrane transfer was determined by staining with 1% Ponceau S in 5% acetic acid for 5 min. After destaining in several distilled water rinses, the membrane was soaked overnight in blocking buffer containing 5% milk in Tris-buffered saline, 0.05% Tween 20. Phosphotyresine was detected by incubating the membrane (1 hr at room temperature) with an anti-phosphotyosine antiserum diluted in blocking buffer at 1:3000. For C6 cells, PDGF-β receptor content in the lysates was confirmed in duplicate sample lanes by western blotting using an antibody specific for PDGF-β receptor (UBI). The antibodies were visualized using ECL reagent from Amersham and by exposure to Fuji RX film.
(§2) For ELISA assays, cells were grown to 80-90% confluency in growth medium and seeded in 96-well tissue culture plates in 0.5% serum at 25,000 to 30,000 cells per well. After overnight incubation in 0.5% serum-containingmedium, cells were changed to serum-free medium and treated with test compound for 2 hr in a 5% CO2, 37° C. incubator. Cells were then stimulated with ligand for 5-10 min followed by lysis with HNTG (20 mM Hepes, 150 mM NaCl, 10% glycerol, 5 mM EDTA, 5 mM Na3 VO4 0.2% Triton X-100, and 2 mM NaPyr). Cell lysates (0.5 mg/well in PBS) were transferred to ELISA plates previously coated with receptor-specific antibody and which had been blocked with 5% milk in TBST (50 mM Tris-HCl pH 7.2, 150 mM NaCl and 0.1% Triton X-100) at room temperature for 30 min. Lysates were incubated with shaking for 1 hr at room temperature. The plates were washed with TBST four times and then incubated with polyclonol anti-phosphotyrosine antibody at room temperature for 30 min. Excess anti-phosphotyrosine antibody was removed by rinsing the plate with TBST four times. Goat anti-rabbit IgG antibody was added to the ELISA plate for 30 min at room temperature followed by rinsing with TBST four more times.
(§3) The ability of different compound to inhibit different receptor tyrosine kinases was tested.

PDGFR [1] = target: PDGFR (Homo sapiens, UniProt P09619); test: Receptor tyrosine kinase inhibition, PDGFR; assay type: cell-based; set-up: U1242 (PDGF-β receptor); host or cells: U1242 glioma cells (ELISA)
Protocol: as §1, with “The medium was replaced with 2 mL MCDB 105 (UCSF Cell Culture Facility) supplemented with 1% FBS.” left out, “Proteins were resolved by SDS-PAGE (Bio-Rad Miniprotean II) and transferred to nitrocellulose membrane (Schleicher & Schuell) at 120 volts for 1 hr at room temperature in buffer containing 25 mM Tris pH 8.3, 20% methanol, 0.2 M glycine, 0.1% SDS.” left out, “For C6 cells, PDGF-β receptor content in the lysates was confirmed in duplicate sample lanes by western blotting using an antibody specific for PDGF-β receptor (UBI).” left out
(§4) For ELISA assays, cells were grown to 80-90% confluency in growth medium and seeded in 96-well tissue culture plates in 0.5% serum at 25,000 to 30,000 cells per well. After overnight incubation in 0.5% serum-containingmedium, cells were changed to serum-free medium and treated with test compound for 2 hr in a 5% CO2, 37° C. incubator. […] Lysates were incubated with shaking for 1 hr at room temperature. The plates were washed with TBST four times and then incubated with polyclonol anti-phosphotyrosine antibody at room temperature for 30 min. Excess anti-phosphotyrosine antibody was removed by rinsing the plate with TBST four times. Goat anti-rabbit IgG antibody was added to the ELISA plate for 30 min at room temperature followed by rinsing with TBST four more times.
as §3

FLK-1 = target: T2, FLK-1 (Mus musculus, UniProt P35918); test: Receptor tyrosine kinase inhibition, FLK-1; assay type: cell-based; settings: read-out: FLK-1 IC50
T2 construct: expressed in transfected cells; host or cells: NIH3T3 mouse fibroblasts, retroviral vector
Protocol: as §1, §2, §3

C6 cells = test: C6 SRB growth assay; assay type: cell-based, rat; settings: for IC50: read-out: C6 SRB IC50
PDGF-R (U1242) = target: T3, PDGF-R (U1242) (Homo sapiens, UniProt P09619); test: U1242 kinase (PDGF-R activity); assay type: cell-based
T3 construct: U1242 (PDGF-β receptor); host or cells: U1242 MG glioma cells
Protocol: as §1, with “The medium was replaced with 2 mL MCDB 105 (UCSF Cell Culture Facility) supplemented with 1% FBS.” left out, “Proteins were resolved by SDS-PAGE (Bio-Rad Miniprotean II) and transferred to nitrocellulose membrane (Schleicher & Schuell) at 120 volts for 1 hr at room temperature in buffer containing 25 mM Tris pH 8.3, 20% methanol, 0.2 M glycine, 0.1% SDS.” left out, “For C6 cells, PDGF-β receptor content in the lysates was confirmed in duplicate sample lanes by western blotting using an antibody specific for PDGF-β receptor (UBI).” left out
as §4
PDGF-R activity, C6 SRB, and in vivo efficacy were measured using the procedures described in the appendices above.

HER2 = test: Receptor tyrosine kinase inhibition, HER2; assay type: cell-based; settings: read-out: HER2 IC50
Protocol: as §1, §2, §3

[2] = C6 glioma SC xenograft in mice; assay type: in vivo; settings: rat, in vivo, ip
Protocol: (§5) Cell lines were grown in appropriate medium (see Appendix 1). Cells were harvested at or near confluency with 0.05% Trypsin-EDTA and pelleted at 450×g for 10 min. Pellets were resuspended in sterile PBS or media (without FBS) to a particular concentration and the cells were implanted into the hindflank of mice. Tumor growth was measured over 3 to 6 weeks using venier calipers. Tumor volumes were calculated as a product of length×width×height unless otherwise indicated. P values were calculated using the Students' t-test.
(§6) C6 and SKOV-3(T) cells were grown in culture, as described in "cell growth" above, and implanted into the hind flank of a female Balb/c nu/nu mouse at 3×10^6 cells (for C6 experiments), or 1×10^7 cells (for SKOV-3 experiments) in […] of PBS on Day 0. U87MG, U118MG or U373MG human glioblastoma cells (obtained from the ATCC), or A4312 were also implanted into athymic mice. […] Tumors were measured using venier calipers and tumor volume was calculated as a product of tumor length, width, and height.

C6 glioma cells = test: C6 glioma SC xenograft in mice; assay type: in vivo
Protocol: as §5, §6

LD10 = settings: in vivo
PDGFR [3] = test: Receptor tyrosine kinase inhibition, PDGFR; assay type: cell-based; settings: W = done in Western assay; read-out: PDGFR IC50 (W)
Protocol: as §1, with “The medium was replaced with 2 mL MCDB 105 (UCSF Cell Culture Facility) supplemented with 1% FBS.” left out, “Proteins were resolved by SDS-PAGE (Bio-Rad Miniprotean II) and transferred to nitrocellulose membrane (Schleicher & Schuell) at 120 volts for 1 hr at room temperature in buffer containing 25 mM Tris pH 8.3, 20% methanol, 0.2 M glycine, 0.1% SDS.” left out, “For C6 cells, PDGF-β receptor content in the lysates was confirmed in duplicate sample lanes by western blotting using an antibody specific for PDGF-β receptor (UBI).” left out
as §4, §3

T1 sequence (P00533 25-1210): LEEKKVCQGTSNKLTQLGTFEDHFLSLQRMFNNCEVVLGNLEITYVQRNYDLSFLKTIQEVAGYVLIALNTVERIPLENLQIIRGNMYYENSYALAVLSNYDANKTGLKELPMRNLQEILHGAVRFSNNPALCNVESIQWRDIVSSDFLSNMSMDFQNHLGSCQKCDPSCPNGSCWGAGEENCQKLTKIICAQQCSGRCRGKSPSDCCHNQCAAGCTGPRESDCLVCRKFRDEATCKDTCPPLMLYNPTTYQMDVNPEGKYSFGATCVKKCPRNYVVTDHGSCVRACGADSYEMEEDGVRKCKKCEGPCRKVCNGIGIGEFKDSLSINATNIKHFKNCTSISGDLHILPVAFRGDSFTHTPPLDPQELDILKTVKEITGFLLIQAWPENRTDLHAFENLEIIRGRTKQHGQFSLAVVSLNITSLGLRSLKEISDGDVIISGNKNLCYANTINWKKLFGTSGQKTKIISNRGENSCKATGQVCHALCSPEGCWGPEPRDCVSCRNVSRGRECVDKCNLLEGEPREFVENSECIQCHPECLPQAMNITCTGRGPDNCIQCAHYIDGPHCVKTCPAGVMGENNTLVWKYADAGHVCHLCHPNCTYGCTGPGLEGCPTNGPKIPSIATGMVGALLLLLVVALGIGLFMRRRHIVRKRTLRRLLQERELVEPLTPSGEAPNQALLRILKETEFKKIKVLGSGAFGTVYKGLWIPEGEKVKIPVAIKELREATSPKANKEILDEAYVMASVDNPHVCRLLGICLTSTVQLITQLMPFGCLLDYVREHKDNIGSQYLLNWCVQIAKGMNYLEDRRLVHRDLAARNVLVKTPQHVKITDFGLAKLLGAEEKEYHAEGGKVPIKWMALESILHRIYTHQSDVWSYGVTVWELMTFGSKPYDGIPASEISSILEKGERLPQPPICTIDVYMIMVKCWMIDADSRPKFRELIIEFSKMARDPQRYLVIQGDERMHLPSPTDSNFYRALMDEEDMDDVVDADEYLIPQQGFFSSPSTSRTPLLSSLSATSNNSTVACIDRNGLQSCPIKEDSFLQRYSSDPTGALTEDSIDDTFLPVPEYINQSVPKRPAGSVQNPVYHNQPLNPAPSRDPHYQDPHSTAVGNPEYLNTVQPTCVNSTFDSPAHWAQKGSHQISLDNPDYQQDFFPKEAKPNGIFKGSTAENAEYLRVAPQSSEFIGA
T2 sequence (P35918 20-1345): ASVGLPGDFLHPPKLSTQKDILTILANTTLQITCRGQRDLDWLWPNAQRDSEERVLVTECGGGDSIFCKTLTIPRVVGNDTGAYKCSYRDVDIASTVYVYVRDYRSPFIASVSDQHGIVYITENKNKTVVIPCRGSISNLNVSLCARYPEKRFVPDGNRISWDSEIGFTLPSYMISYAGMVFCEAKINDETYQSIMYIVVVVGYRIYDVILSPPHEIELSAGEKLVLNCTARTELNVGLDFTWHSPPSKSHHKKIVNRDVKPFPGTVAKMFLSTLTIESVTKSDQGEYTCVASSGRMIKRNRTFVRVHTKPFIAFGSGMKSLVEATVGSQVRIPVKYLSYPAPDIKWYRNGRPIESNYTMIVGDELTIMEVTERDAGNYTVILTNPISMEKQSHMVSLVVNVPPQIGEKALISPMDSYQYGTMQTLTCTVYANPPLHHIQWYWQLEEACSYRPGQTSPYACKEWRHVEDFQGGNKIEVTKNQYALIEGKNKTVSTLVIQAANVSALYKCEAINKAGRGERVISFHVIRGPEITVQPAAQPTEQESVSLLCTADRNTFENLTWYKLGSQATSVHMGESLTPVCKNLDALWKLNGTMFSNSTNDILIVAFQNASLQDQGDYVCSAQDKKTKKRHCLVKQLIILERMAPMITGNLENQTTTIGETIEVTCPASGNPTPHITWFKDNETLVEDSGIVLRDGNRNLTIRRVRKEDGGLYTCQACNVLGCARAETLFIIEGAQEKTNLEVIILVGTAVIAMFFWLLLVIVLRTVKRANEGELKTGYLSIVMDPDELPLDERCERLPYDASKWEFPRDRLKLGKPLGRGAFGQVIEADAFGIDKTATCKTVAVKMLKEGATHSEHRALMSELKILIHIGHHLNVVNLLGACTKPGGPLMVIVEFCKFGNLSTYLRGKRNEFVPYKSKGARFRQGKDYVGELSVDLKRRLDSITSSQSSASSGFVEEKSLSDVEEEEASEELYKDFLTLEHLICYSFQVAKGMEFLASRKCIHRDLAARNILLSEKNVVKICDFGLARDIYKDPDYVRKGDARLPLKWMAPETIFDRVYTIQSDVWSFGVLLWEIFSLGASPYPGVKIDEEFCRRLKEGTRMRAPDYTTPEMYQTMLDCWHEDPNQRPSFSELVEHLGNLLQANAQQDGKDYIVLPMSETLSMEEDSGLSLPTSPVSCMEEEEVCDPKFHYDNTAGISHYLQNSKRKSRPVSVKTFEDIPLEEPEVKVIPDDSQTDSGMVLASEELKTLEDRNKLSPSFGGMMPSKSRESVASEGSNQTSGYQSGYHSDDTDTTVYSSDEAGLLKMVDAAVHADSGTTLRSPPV
T3 sequence (P09619 33-1106): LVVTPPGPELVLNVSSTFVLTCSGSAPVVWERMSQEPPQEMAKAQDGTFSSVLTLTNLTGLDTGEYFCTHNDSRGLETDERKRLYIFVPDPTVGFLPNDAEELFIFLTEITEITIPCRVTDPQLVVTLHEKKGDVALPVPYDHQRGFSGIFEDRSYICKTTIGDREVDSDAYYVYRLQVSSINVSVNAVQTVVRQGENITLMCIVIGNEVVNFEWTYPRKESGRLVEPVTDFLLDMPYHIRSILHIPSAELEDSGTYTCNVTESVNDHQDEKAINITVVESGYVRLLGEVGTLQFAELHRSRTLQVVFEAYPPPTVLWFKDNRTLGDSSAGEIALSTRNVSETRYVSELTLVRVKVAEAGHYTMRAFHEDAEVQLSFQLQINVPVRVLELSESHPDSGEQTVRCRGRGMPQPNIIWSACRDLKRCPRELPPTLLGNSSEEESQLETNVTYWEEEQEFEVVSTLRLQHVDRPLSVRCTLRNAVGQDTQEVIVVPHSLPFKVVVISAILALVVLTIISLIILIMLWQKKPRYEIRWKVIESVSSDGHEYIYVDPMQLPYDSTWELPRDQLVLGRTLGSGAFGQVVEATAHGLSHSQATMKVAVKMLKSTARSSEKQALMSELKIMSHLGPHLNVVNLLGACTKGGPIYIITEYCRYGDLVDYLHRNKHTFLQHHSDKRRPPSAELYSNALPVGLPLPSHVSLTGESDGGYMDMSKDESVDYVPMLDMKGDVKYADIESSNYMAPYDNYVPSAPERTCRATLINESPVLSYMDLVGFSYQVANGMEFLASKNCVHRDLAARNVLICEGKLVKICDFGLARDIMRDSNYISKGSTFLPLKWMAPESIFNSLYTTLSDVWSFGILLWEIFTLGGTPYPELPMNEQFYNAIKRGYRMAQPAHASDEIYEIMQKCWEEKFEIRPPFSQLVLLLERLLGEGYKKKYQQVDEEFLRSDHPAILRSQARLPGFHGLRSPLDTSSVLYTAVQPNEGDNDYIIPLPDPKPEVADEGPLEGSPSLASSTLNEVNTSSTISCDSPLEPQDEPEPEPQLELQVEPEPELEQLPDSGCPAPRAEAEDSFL
PDGFR (Homo sapiens, UniProt P09619), sequence (P09619 33-1106): as above

SMILES	IC50 (EGFR)	IC50 (PDGFR [1]; read-out: PDGFR IC50)	IC50 (FLK-1)	IC50 (HER2)	IC50 (C6 cells; Rattus norvegicus, C6)	IC50 (PDGF-R (U1242); read-out: U1242 KINASE IC50)	LD10 (LD10)	other results
Cc1cc2ncc(Nc3ccc(I)cc3)nc2cc1C [Compound G30]	> 100 µM	32 µM	10 µM	34 µM	2 µM	32.5 µM		
COc1cc(C=C(C#N)C(=O)NCCCc2ccccc2)cc(I)c1O [Compound P16]					17 µM		> 400 mg/kg	mortality at 240 h ([2]; 60 mg/kg (G24 at d10)): 0%; C6 in vivo EFFICACY (C6 glioma cells; at 60 mg/kg): no effect
CC1c2nc3ccccc3c(=O)n2C(c2ccc(O)c(O)c2)N1Cc1ccccc1 (stereo not drawn) [Compound H10]			> 50 µM		13 µM	> 50 µM	75 mg/kg	mortality at 408 h ([2]; 30 mg/kg, at d17): 14.3%; inhibition in vivo at 30 mg/kg (C6 glioma cells; Rattus norvegicus, C6 glioma, sc, at 30 mg/kg, read-out: C6 in vivo EFFICACY): 52%; IC50 (PDGFR [3]): 25 µM; IC50 (PDGF-R (U1242); W = done in Western assay, read-out: U1242 KINASE IC50 (W)): 25 µM
Cc1cc2nc(C(=O)O)c(-c3ccccc3)nc2cc1C [Compound G25]	> 50 µM	0.9 µM	> 50 µM	> 50 µM	50 µM	1 µM		
Cc1cc2ncc(Nc3cccc(I)c3)nc2cc1C [Compound G29]	< 0.8 µM	23 µM	10 µM	34 µM	> 13 µM	23.2 µM		
CC(C)(C)c1cc(C=C(C#N)c2[nH]nc(N)c2C#N)cc(C(C)(C)C)c1O [Compound C13]	16 µM		3.3 µM	29 µM				IC50 (PDGFR [1]): 16 µM
CN(C)CCn1cc(C=C(C#N)c2[nH]nc(N)c2C#N)c2ccccc21 [Compound D18]	> 50 µM	34 µM	> 50 µM	> 50 µM				
N#CC(=Cc1c[nH]c2ccccc12)c1c(C#N)c(N)nn1-c1ccccc1 [Compound D20]	> 50 µM	14 µM	> 50 µM	> 50 µM				
CC1c2nc3ccccc3c(=O)n2C(c2ccc(O)cc2)N1Cc1ccccc1 (stereo not drawn) [Compound H13]					20 µM	> 50 µM	> 400 mg/kg	mortality ([2]; 40 mg/kg (J10 at d18, G24 at d15)): 0%; mortality at 192 h ([2]; 100 mg/kg (E15 at d8)): 0%; inhibition in vivo at 40 mg/kg (C6 glioma cells; Rattus norvegicus, C6 glioma, sc, at 40 mg/kg, read-out: C6 in vivo EFFICACY): 0%; inhibition in vivo at 100 mg/kg (C6 glioma cells; Rattus norvegicus, C6 glioma, sc, at 100 mg/kg, read-out: C6 in vivo EFFICACY): 41%; IC50 (C6 cells): 10.5 µM
COc1cc2ncnc(N3CCc4ccccc43)c2cc1OC [Compound P17]					12 µM		> 100 mg/kg	
Cc1cc2ncc(-c3ccc([N+](=O)[O-])cc3)nc2cc1C [Compound G27, 2-(4-nitrophenyl) 6.7 dimethylquinoxaline]	> 100 µM	48 µM	> 50 µM	> 50 µM				
Cc1noc(C)c1C(=O)Nc1ccc(C(F)(F)F)cc1 [Compound A13, N-trifluoromethlyphenyl 3,5-dimethylisoxazole-4-carboxamide]					> 25 µM		> 200 mg/kg	inhibition at 25 µM (C6 cells; Rattus norvegicus, C6, at 25 μM): ~30%

Further lines, with some results ahead:

IC50 (EGFR)	IC50 (PDGFR [1]; read-out: PDGFR IC50)	IC50 (FLK-1)	IC50 (HER2)	SMILES	IC50 (C6 cells; Rattus norvegicus, C6)	IC50 (PDGF-R (U1242); read-out: U1242 KINASE IC50)	LD10 (LD10)	other results
> 100 µM	46 µM	> 50 µM	> 50 µM	COCCCN1C(=O)SC(=Cc2ccccc2Cl)C1=O [Compound P15]				
> 100 µM	3 µM	> 25 µM	> 50 µM	N#CCS(=O)(=O)C(C#N)=Cc1cc(O)c(O)c(Br)c1 [Compound J11]	14 µM	3.1 µM		
